Assay: UPLC/MS determination of blood plasma Amygdalin after administration of the body resistance-strengthening and blood stasis-dissipating botanical composition
Format: in vivo
Settings: blood plasma of mammals after drenched with body resistance-strengthening and blood stasis-dissipating (Fuzheng Huayu, FZHY) botanical composition; UPLC-MS, FIG. 1 (plasma taken 0.5 hours after administration)
Description: a. After the administration of the body resistance-strengthening and blood stasis-dissipating botanical composition to mammals, first add 2-5 mol/L phosphoric acid to the composition-containing mammalian blood plasma and mix to homogenize, the volumetric ratio of the blood plasma to phosphoric acid is 1:2-3, feed the same to a Waters Oasis HLB cartridge that has been activated by methanol and water, leach with water and 80-100% methanol and elute with 0.2-1% ammonia methanol, then dry through evaporation and enrich the eluent at 25-30° C., and re-dissolve the eluent with a mobile phase;
Chromatographic conditions: chromatographic column: Acquity UPLC BEH C18, 2.1×100 mm, mobile phase A: Water-Acetonitrile-Formic acid 95:5:0.1 v/v/v, mobile phase B: Acetomtrile-Formic acid 100:0.1 v/v; MS conditions: electrospray ionization (ESI) ion source, detection in the positive ion mode, and the mass scanning range m/z 150˜800.
The ESI ion source in said Step (2) employs detection in the positive ion mode; the desolvation gas flow rate is 440 L/h, the desolvation gas temperature is 300° C., the cone gas flow rate is 50 L/h, the ion source temperature is 100° C., the spray capillary voltage is 3800 V, the sampling cone voltage is 30 V, the extracting cone voltage is 2.00 V, and the lens voltage is 0.1 V. The mass scanning range is m/z 150˜800.
1. […]

In the case of `N#C[C@H](O[C@@H]1O[C@H](CO[C@@H]2O[C@H](CO)[C@@H](O)[C@H](O)[C@H]2O)[C@@H](O)[C@H](O)[C@H]1O)c1ccccc1` [Amygdalin], the “Detection of Amygdalin in blood plasma” value is reported as “can be detected”.

— patent US8334110B2, “Detection of blood plasma amygdalin of dissipating blood stasis botanical” (Shanghai Sundise Chinese Medicine Technology Development …, priority 2007, dated 2012)
